Measurements from article PMC7369893, “Antimicrobial Peptides Display Strong Synergy with Vancomycin Against Vancomycin-Resistant E. faecium, S. aureus, and Wild-Type E. coli” (International Journal of Molecular Sciences, 2020).
In brackets after ≈: the same amount, converted by molar mass. Positions of bridges follow the written chain, without caps; N, C: chain ends. Non-standard residues stand in square brackets, D forms with d. Residues, ends and D or L forms follow the SMILES beside them. No end group written: not given here. Bip = N[C@@H](Cc1ccc(-c2ccccc2)cc1)C(=O)O; 2Nal = N[C@@H](Cc1ccc2ccccc2c1)C(=O)O

Legend:
[1] = POPC:POPG (3:1, mol/mol) and POPC:LPS (4:1, mol/mol) LUVs; cited from earlier work
Source text: Dathe and coauthors used POPC:LPS as model prokaryotic membranes to study peptide activity against E. coli and the role of LPS [20]. Previously, we have evaluated the membrane-permeability of P-113 and its derivatives by measuring the release of calcein from various phospholipid vesicles such as POPC:POPG (3:1, mol/mol) LUVs (mimic the anionic bacterial membrane) and POPC:LPS (4:1, mol/mol) LUVs (served as surrogates of Gram-negative bacterial membranes that contain LPS). […] Nal- ...

E. faecium BCRC 15B0132 = assay: Uptake of BODIPY-labeled vancomycin, confocal laser scanning microscopy; assay type: cell-based, Enterococcus faecium; conditions: VRE 10^7 CFU/mL, 0.5 ×MIC peptide 30 min at 37 °C, then BODIPY-labeled vancomycin (2 μg/mL) 30 min; mean fluorescence intensity
Description: (§1) The fluorescence experiments were performed with slight modification as described previously. Briefly, the bacteria (10^7 CFU/mL) were incubated with 0.5 ×MIC antimicrobial peptides for 30 min and then treated with BODIPY-labeled vancomycin (2 μg/mL) for 30 min. Samples treated with BODIPY-labeled vancomycin only served as a control. After incubation, bacteria were centrifuged at 8000× g for 5 min, washed three times with PBS to remove unbinding fluorescence dye, and resuspended by PBS. The resuspended solution were loaded on the glass slides (Polysine™, Thermo Fisher Scientific, Waltham, MA, USA) and visualized under confocal laser scanning microscope (LSM 510 META, Carl Zeiss, Jena, Thüringen, Germany) equipped with a 64× oil objective lens (Carl Zeiss, Jena, Thüringen, Germany).

[2] = tested on: VRE, VISA, VRSA and E. coli strains; assay: Checkerboard assay, summary statements of the text over the strain panel; assay type: cell-based; conditions: peptide at ¼ ×MIC combined with vancomycin, all strains studied
Description: The synergistic effects of peptides in combination with vancomycin were investigated by checkerboard assay with slight modification. The peptides were fixed concentration at ¼ × MIC, then in combination with antibiotics at various concentrations in each well of 96-well plate. Then the peptide/antibiotic were mixed with inoculum (5 × 10^5 CFU/mL) and incubated at 37 °C for 16 h. The fractional inhibitory concentration (FIC) index was calculated as follows: FIC index = (MIC of drug A in combination/MIC of drug A alone) + (MIC of drug B in combination/MIC of drug B alone). An FIC index of ≤ 0.5 was defined as synergy, indifference was defined as an FIC index of 0.5 < FICI ≤ 4, antagonism was defined as an FIC index of > 4. The experiments were performed in triplicate.

E. coli ATCC 25922 [3] = assay: microbe, parasite or virus in culture; assay type: cell-based, Escherichia coli; conditions: ATCC 25922, 16 h
Description: (§2) The antibacterial activities of peptides were determined by the standard broth microdilution method according to the guidelines of the Clinical and Laboratory Standards Institute (CLSI). Briefly, E. coli ATCC 25922 were incubated in MHB, and E. faecium BCRC 15B0132, VISA and VRSA strains were incubated in TSB overnight at 37 °C. The cell cultures were regrown to the mid-log phase and subsequently diluted to a final concentration of 5 × 10^5 CFU/mL. The 1 µL peptides or antibiotic were loaded into each well at the final concentration of 64, 32, 16, 8, 4, 2, 1, and 0.5 µg/mL, then loaded 99 µL diluted microbes into each well of polypropylene 96-well plate. After 16 h of incubation at 37 °C, the turbidity at OD600 was measured by the microplate reader. The minimal inhibitory concentration (MIC) value was defined as the lowest concentration of peptide or antibiotic, which inhibited the 90% visible growth of bacteria. All experiments were repeated three times independently.

[4] = tested on: E. faecium BCRC 15B0132 (VRE); assay: microbe, parasite or virus in culture; assay type: cell-based, Enterococcus faecium; conditions: BCRC 15, 16 h
Description: as §2

[5] = among the P-113 derivatives; cited from earlier work
Source text: The two terminal β-naphthylalanine residues of S1-Nal-Nal (Ac-[…]alNal-NH2) were inserted into the hydrophobic lipid A motif of LPS micelles. […] Similarly, derivatives with phenylalanine-(Phe-P-113), β-naphthylalanine- (Nal-P-1 ...

[6] = tested on: Vancomycin-resistant S. aureus 01 (VRSA01); assay: microbe, parasite or virus in culture; assay type: cell-based, Staphylococcus aureus; conditions: VRSA01 (induced from VISA01 by serial passage); CLSI broth microdilution, TSB, 5 × 10^5 CFU/mL, 16 h, 37 °C; triplicate
Description: (§3) For the purpose of inducing vancomycin-resistant Staphylococcus aureus (VRSA), the VISA01, VISA02, and VISA03 bacteria were incubated overnight in culture medium, and transferring 50 µL of bacteria to 5 mL of fresh medium containing 2 μg/mL of vancomycin then incubated overnight. The bacteria were transferred to new tube with doubling vancomycin concentration and then incubated overnight again. The concentration of vancomycin during serial passage was 2, 4, 8, 16, and 32 µg/mL. The procedure was repeated until meeting the final concentration of 32 µg/mL. After serial passage, the cell resistance was confirmed by using an MIC assay.
as §2

[7] = tested on: Vancomycin-resistant S. aureus 02 (VRSA02); assay: microbe, parasite or virus in culture; assay type: cell-based, Staphylococcus aureus; conditions: VRSA02 (induced from VISA02 by serial passage); CLSI broth microdilution, TSB, 5 × 10^5 CFU/mL, 16 h, 37 °C; triplicate
Description: as §3, §2

[8] = tested on: Vancomycin-resistant S. aureus 03 (VRSA03); assay: microbe, parasite or virus in culture; assay type: cell-based, Staphylococcus aureus; conditions: VRSA03 (induced from VISA03 by serial passage); CLSI broth microdilution, TSB, 5 × 10^5 CFU/mL, 16 h, 37 °C; triplicate
Description: as §3, §2

[9] = tested on: Vancomycin-intermediate S. aureus 01 (VISA01); assay: microbe, parasite or virus in culture; assay type: cell-based, Staphylococcus aureus; conditions: Vancomycin-intermediate 01 (VISA01, 16 h)
Description: as §2

[10] = tested on: Vancomycin-intermediate S. aureus 03 (VISA03); assay: microbe, parasite or virus in culture; assay type: cell-based, Staphylococcus aureus; conditions: Vancomycin-intermediate 03 (VISA03, 16 h)
Description: as §2

[11] = tested on: Vancomycin-intermediate S. aureus 02 (VISA02); assay: microbe, parasite or virus in culture; assay type: cell-based, Staphylococcus aureus; conditions: Vancomycin-intermediate 02 (VISA02, 16 h)
Description: as §2

[12] = tested on: VRE, VISA, VRSA, and E. coli strains; assay: microbe, parasite or virus in culture; assay type: cell-based; conditions: all strains studied (VRE, VISA 01-03, VRSA 01-03, E. coli), Table 2
Description: as §2

mice = conditions: mouse, in vivo, 10 mg/kg; cited from earlier work
E. coli ATCC 25922 [13] = assay: Uptake of BODIPY-labeled vancomycin, confocal laser scanning microscopy; assay type: cell-based, Escherichia coli; conditions: E. coli 10^7 CFU/mL, 0.5 ×MIC peptide 30 min at 37 °C, then BODIPY-labeled vancomycin (2 μg/mL) 30 min; mean fluorescence intensity
Description: as §1

[14] = tested on: E. faecium BCRC 15B0132 (VRE); assay: Time killing assay; assay type: cell-based, Enterococcus faecium; conditions: 5 × 10^5 CFU/mL, 1 × MIC, 0.5-24 h, 37 °C, triplicate
Description: (§4) The bactericidal activities of vancomycin, P-113, Phe-P-113, Bip-P-113, Dip-P-113, and Nal-P-113 against E. faecium BCRC 15B0132 (VRE) and E. coli ATCC 25922 were assessed by the time-kill analysis. The cells were grown overnight in TSB or MHB at 37 °C with shaking, and then fresh TSB or MHB was inoculated for growth to mid-logarithmic phase. Bacteria (5 × 10^5 CFU/mL) were treated with 1 × MIC vancomycin, P-113, Phe-P-113, Bip-P-113, Dip-P-113, and Nal-P-113 for 0.5, 1, 2, 4, 6, 10, and 24 h at 37 °C. Bacteria without peptides and vancomycin served as a control. Aliquots were removed at each time points, and 10-fold serial dilutions of the aliquot were plated onto the Müller-Hinton agar. The numbers of CFU were counted after 24 h of incubation at 37 °C. The detection limit for the colony counts was 2log10 CFU/mL.

human fibroblasts (HFW) = conditions: peptide >25 µg/mL; cited from earlier work
E. coli ATCC 25922 [15] = assay: Time killing assay; assay type: cell-based, Escherichia coli; conditions: E. coli ATCC 25922, 5 × 10^5 CFU/mL, 1 × MIC, 0.5-24 h, 37 °C; triplicate
Description: as §4

Gram-negative bacteria = conditions: cited from earlier work
Source text: CLP-19 was derived from the core domain of Limulus anti-LPS factor (LALF; amino acids 31–52) with a sequence of ([…]) and a head to tail disulfide bond. It is likely that the positive charges of CLP-19 can interact with the negative charges of LPS and the hydrophobic part of CLP-19 can bind to the f ...

Compound	calcein leakage from LUVs [1]	entry of BODIPY-labeled vancomycin into the bacteria (rank order) (E. faecium BCRC 15B0132)	synergy with vancomycin (interpretation of FICI) [2]	MIC (E. coli ATCC 25922 [3]) [µg/mL]	MIC [4] [µg/mL]	serum proteolytic stability [5]	MIC [6] [µg/mL]	MIC [7] [µg/mL]	MIC [8] [µg/mL]	MIC [9] [µg/mL]	MIC [10] [µg/mL]	MIC [11] [µg/mL]	MICs against these bacterial strains [12]	adverse effect in mice (mice)	entry of BODIPY-labeled vancomycin into the bacteria (rank order) (E. coli ATCC 25922 [13])	killing kinetics [14]	cell death (MTT) (human fibroblasts (HFW))	killing kinetics (E. coli ATCC 25922 [15])	antibiotic-induced release of LPS (Gram-negative bacteria)
CC(=O)N[C@@H](C)C(=O)N[C@@H](CCCCN)C(=O)N[C@@H](CCCNC(=N)N)C(=O)N[C@@H](Cc1ccc(-c2ccccc2)cc1)C(=O)N[C@@H](Cc1ccc(-c2ccccc2)cc1)C(=O)NCC(=O)N[C@@H](Cc1ccc(O)cc1)C(=O)N[C@@H](CCCCN)C(=O)N[C@@H](CCCNC(=N)N)C(=O)N[C@@H](CCCCN)C(=O)N[C@@H](Cc1ccccc1)C(=O)N[C@@H](Cc1ccc(-c2ccccc2)cc1)C(N)=O [Bip-P-113] (Ac-AKR[Bip][Bip]GYKRKF[Bip]-NH2)	strongest ability to induce calcein leakage	Bip-P-113 = Nal-P-113 > Dip-P-113 > Phe-P-113 = P-113	best synergy with vancomycin against all of the bacterial strains tested	32 (≈ 17.2 µM)	4 (≈ 2.15 µM)	enhanced	16 (≈ 8.58 µM)	16 (≈ 8.58 µM)	8 (≈ 4.29 µM)	16 (≈ 8.58 µM)	8 (≈ 4.29 µM)	16 (≈ 8.58 µM)	best MICs	did not observe any adverse effect	Bip-P-113 > Nal-P-113 > Dip-P-113 > Phe-P-113 = P-113	rapid bactericidal activity	10–20%	–	–
CC(=O)N[C@@H](C)C(=O)N[C@@H](CCCCN)C(=O)N[C@@H](CCCNC(=N)N)C(=O)N[C@@H](Cc1ccc2ccccc2c1)C(=O)N[C@@H](Cc1ccc2ccccc2c1)C(=O)NCC(=O)N[C@@H](Cc1ccc(O)cc1)C(=O)N[C@@H](CCCCN)C(=O)N[C@@H](CCCNC(=N)N)C(=O)N[C@@H](CCCCN)C(=O)N[C@@H](Cc1ccccc1)C(=O)N[C@@H](Cc1ccc2ccccc2c1)C(N)=O [Nal-P-113] (Ac-AKR[2Nal][2Nal]GYKRKF[2Nal]-NH2)	dose-dependent calcein leakage	Bip-P-113 = Nal-P-113 > Dip-P-113 > Phe-P-113 = P-113	synergistic effects against VRE, VISA 03, VRSA 01, VRSA 02, VRSA 03, and E. coli	32 (≈ 17.9 µM)	4 (≈ 2.24 µM)	–	8 (≈ 4.48 µM)	8 (≈ 4.48 µM)	16 (≈ 8.96 µM)	8 (≈ 4.48 µM)	8 (≈ 4.48 µM)	8 (≈ 4.48 µM)	best MICs	–	Bip-P-113 > Nal-P-113 > Dip-P-113 > Phe-P-113 = P-113	rapid bactericidal activity	10–20%	fastest bactericidal activity	–
CHYRIKPTFRRLKWKYKGKFWC (disulfide 1-22 (inferred)) [CLP-19, antimicrobial peptide derived from the core domain of Limulus anti-LPS factor, with a disulfide bond]	–	–	–	–	–	–	–	–	–	–	–	–	–	–	–	–	–	–	reduce antibiotic-induced release of LPS
